Converted amounts (≈) assume the structure as drawn. “And” between values parts separate entries of the source, which are not always exact repeats. Equal values may be shown once.
Tests used:
BChE from human serum = BChE from human serum (Homo sapiens, UniProt P06276); settings: screened at 10 μM; n.i. = no inhibition
Protocol: (§1) Herein, a number of newly and previously synthesized 3-benzazecine analogs, including either allene (Figure 1, scaffold A) or 6- and 8-ylidene (B and C) derivatives, were firstly assayed as inhibitors of AChE, BChE, and MAOs at 10 μM concentration.
(§2) Inhibition of human recombinant AChE (2770 U/mg) or BChE from human serum (50 U/mg) was determined as described using the Ellman spectrophotometric method in a 96-well plate procedure. Briefly, test compounds were incubated in phosphate buffer pH 8.0 in the presence of the enzyme and 5,5′-dithiobis-(2-nitrobenzoic acid) (DTNB) as the chromophoric reagent. Incubation samples were made in 96-well, flat-bottomed transparent polystyrene plates (Greiner Bio-One, Kremsmünster, Austria), at 25 °C for 20 min, and read at 412 nm using an Infinite M1000 Pro plate reader (Tecan, Cernusco s.N., Italy). For inhibition kinetics, four concentrations of compound 3e (ranging from 0 to 15 μM), and six concentrations of acetylthiocholine (from 33 to 200 μM) were used. Inhibition data and kinetics were obtained as means ± SD from 3 independent experiments, using GraphPad Prism (version 5.00 for Windows; GraphPad Software, San Diego, CA, USA).

human recombinant AChE = human recombinant AChE (Homo sapiens, UniProt P22303); settings: for IC50: read-out: hAChE half-maximal inhibitory concentration, mean ± SD of three independent measurements, unit from b17 (low μM range)
Sequence of human recombinant AChE (P22303 32-614): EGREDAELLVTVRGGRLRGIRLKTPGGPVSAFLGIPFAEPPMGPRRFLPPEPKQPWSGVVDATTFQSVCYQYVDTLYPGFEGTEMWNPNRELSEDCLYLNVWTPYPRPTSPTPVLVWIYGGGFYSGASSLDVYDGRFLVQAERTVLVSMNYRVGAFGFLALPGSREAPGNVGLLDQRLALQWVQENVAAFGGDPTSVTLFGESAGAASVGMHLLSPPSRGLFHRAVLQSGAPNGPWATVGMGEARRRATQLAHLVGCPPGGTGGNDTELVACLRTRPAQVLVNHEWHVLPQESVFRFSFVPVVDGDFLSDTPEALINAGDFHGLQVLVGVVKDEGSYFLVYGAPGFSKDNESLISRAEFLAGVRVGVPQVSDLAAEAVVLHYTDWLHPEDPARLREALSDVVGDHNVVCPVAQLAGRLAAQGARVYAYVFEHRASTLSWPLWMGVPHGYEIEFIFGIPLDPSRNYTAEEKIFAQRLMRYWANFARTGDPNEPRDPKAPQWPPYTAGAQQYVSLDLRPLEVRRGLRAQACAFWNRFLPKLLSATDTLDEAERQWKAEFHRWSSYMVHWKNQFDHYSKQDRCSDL
Protocol: as §1, §2

[1] = biological target: T1, human recombinant monoamine oxidase A (Homo sapiens, UniProt P21397); assay: Inhibition of MAO-A, kynuramine fluorescence assay; format: biochemical; settings: mean ± SD
T1 construct: purchased Sigma Aldrich; host or cells: baculovirus infected insect cells (microsomes)
T1 sequence (P21397 1-527): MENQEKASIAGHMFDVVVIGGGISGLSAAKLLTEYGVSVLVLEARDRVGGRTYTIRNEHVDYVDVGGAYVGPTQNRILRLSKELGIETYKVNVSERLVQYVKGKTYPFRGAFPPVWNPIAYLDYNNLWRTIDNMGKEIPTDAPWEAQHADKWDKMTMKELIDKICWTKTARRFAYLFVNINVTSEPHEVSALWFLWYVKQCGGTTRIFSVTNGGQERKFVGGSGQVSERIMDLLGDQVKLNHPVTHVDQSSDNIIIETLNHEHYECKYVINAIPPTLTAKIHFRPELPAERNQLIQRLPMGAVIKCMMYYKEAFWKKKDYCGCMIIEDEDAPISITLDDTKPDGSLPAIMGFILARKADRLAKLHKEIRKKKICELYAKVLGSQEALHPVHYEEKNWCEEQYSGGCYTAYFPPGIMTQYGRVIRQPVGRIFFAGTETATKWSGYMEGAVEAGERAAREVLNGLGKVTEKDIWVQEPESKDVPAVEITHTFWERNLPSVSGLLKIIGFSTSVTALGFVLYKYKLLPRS
Protocol: as §1
(§3) Inhibition of human recombinant monoamine oxidases A (250 U/mg) and B (59 U/mg; microsomes from baculovirus infected insect cells; Sigma Aldrich) was determined as already described, measuring the fluorescence of 4-hydroxyquinoline produced by MAOs in the oxidative deamination of substrate kynuramine. Briefly, compounds were tested in coincubation with MAO and kynuramine in phosphate buffer 390 mOsm pH 7.4, at 37 °C for 30 min. Assays were performed in 96-well black polystyrene plates (Greiner) using the Infinite M1000 Pro plate reader (Tecan). Inhibition data were obtained as means ± SD using GraphPad Prism.

[2] = biological target: T2, human recombinant monoamine oxidase B (Homo sapiens, UniProt P27338); assay: Inhibition of MAO-B, kynuramine fluorescence assay; format: biochemical; settings: mean ± SD
T2 construct: purchased Sigma Aldrich; host or cells: baculovirus infected insect cells (microsomes)
T2 sequence (P27338 1-520): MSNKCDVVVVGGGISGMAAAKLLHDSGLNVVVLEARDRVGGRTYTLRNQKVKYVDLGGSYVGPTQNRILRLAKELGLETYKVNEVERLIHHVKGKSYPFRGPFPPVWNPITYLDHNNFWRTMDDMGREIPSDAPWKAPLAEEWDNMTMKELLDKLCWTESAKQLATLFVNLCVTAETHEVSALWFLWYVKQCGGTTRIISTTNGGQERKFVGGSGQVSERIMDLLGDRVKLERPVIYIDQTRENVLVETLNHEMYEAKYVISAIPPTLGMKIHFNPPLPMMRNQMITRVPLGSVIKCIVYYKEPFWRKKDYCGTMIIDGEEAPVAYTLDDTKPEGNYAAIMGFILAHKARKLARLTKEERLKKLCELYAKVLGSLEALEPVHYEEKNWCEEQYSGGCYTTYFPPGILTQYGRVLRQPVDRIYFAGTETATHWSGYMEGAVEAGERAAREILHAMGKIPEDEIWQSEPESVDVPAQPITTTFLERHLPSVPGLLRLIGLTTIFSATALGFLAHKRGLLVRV
Protocol: as §1, §3

[3] = Kinetic aqueous solubility by U-HPLC
Protocol: Following shaking of the suspension in an orbital shaker at 250 rpm for 2 h, the solution was separated by centrifugation (2500 rpm, 3 min) and filtered. Equal volume of solution was transferred into 1:1 (v/v) mixture of DMSO/PBS. The concentration of compound was determined by U-HPLC and UV detector (255 nm) comparing the peak area of external standard solution. All data were means of 3 independent experiments (± SEM). […] HPLC analyses were performed on an Agilent U-HPLC 1260 Infinity Quaternary LC system (Agilent Technologies, Milan, Italy) (Table 4).

[4] = Hydrolytic stability in water-buffered solution by U-HPLC; settings: PBS pH 7.4, 0.15 M KCl, 37 °C (table footnote)
Protocol: At appropriate time intervals, samples were withdrawn and analyzed by U-HPLC using a 1290 Infinity Quaternary LC system (Agilent Technologies, Milan, Italy) equipped with autosampler and photodiode array detector. A Phenomenex Kinetex C18 column 2.6 µm (150 × 2.1 mm i.d.) was used as stationary phase. […] Pseudo-first-order rate constants (kobs) for the hydrolysis of the compound were calculated from the slopes of the linear plots of log (% remaining compound) against time.

Sequence of BChE from human serum (P06276 29-602): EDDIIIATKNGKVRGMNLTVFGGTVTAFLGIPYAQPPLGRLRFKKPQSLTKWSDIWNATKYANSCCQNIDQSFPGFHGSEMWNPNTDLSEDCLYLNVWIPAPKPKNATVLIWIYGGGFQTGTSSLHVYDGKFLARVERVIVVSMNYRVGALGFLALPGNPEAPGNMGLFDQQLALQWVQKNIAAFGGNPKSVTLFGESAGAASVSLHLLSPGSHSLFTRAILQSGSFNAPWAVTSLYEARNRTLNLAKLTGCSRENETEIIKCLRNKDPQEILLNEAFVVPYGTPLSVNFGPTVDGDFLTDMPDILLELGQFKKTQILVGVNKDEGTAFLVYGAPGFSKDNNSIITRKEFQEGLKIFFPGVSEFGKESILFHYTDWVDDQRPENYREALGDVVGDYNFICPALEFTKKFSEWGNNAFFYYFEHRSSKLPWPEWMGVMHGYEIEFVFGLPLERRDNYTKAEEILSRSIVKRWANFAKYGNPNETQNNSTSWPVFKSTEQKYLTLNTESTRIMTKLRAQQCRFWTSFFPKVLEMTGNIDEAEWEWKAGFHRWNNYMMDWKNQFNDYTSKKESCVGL

Row | SMILES | hBChE inhibition (BChE from human serum) | IC50 (human recombinant AChE) | hMAO-A % inhibition at 10 μM [1] | hMAO-B % inhibition at 10 μM [2] | Ki (human recombinant AChE; read-out: AChE inhibition, Ki, Lineweaver–Burk inhibition kinetics, acetylthiocholine substrate) | Water solubility relative to 3n ([3]; 3e vs 3n, buffered aqueous solution pH 7.4) | Solubility ([3]; PBS pH 7.4, 0.15 M KCl, 37 °C, kinetic solubility) | Hydrolytic half-life [4]
1 | COCC1=C=C(c2ccc(C)cc2)c2cc(OC)c(OC)cc2CCN(C)C=C1C(=O)OC [Compound 3d, Methyl 3-methyl-8-(4-methylphenyl)-10,11-dimethoxy-6-(methoxymethyl)-benzo[d]-3-aza-cyclodeca-4,6,7-triene-5-carboxylate] | n.i. | 19.3 ± 3.3 µM | (30 ± 4) % | (30 ± 5) % | – | – | – | –
2 | COCC1=C=C(c2ccc(OC)cc2)c2cc(OC)c(OC)cc2CCN(C)C=C1C(=O)OC [Compound 3e, Methyl 3-methyl-10,11-dimethoxy-6-methoxymethyl-8-(4-methoxyphenyl)-benzo[d]-3-aza-cyclodeca-4,6,7-triene-5-carboxylate] | n.i. | 12.2 ± 2.6 µM | (37 ± 5) % | (23 ± 1) % | 4.9 µM and 4.89 µM | 90 fold | 17.4 ± 0.7 µM (≈ 8.1 µg/mL) | 4.5 h
3 | COCC1=C=C(c2ccc(C)cc2)c2cc(OC)c(OC)cc2CCN(C)C=C1C(C)=O [Compound 3i, 1-(3-Methyl-8-(4-methylphenyl)-10,11-dimethoxy-6-methoxymethyl-benzo[d]-3-aza-cyclodeca-4,6,7-trien-5-yl)ethanone] | n.i. | 32.5 ± 4.4 µM | (28 ± 1) % | (38 ± 4) % | – | – | – | –
4 | COCC1=C=C(c2ccc(OC)cc2)c2cc(OC)c(OC)cc2CCN(C)C=C1C(C)=O [Compound 3j, 1-(3-Methyl-10,11-dimethoxy-6-methoxymethyl-8-(4-methoxyphenyl)-benzo[d]-3-aza-cyclodeca-4,6,7-trien-5-yl)ethanone] | n.i. | 13.2 ± 0.7 µM | (29 ± 5) % | (28 ± 5) % | – | – | – | –
